Structures can show the parent of a compound that is named as a salt. Bounds are passed on as bounds.

The subject of one data set is MCF-7. As to the kind of experiment: In vitro cytotoxicity, 3-day MTT assay, MCF-7. In kind it is cell-based, human. As to conditions: for IC50: 3-day MTT assay. On the procedure: (§1) In carrying out the following cytoloxicity assays, the method used corresponds substantially to the following example: • Cells were maintained in a continuous logarithmic culture in RMPI 1640 with L-glutamine medium, supplemented with 10% fetal calf serum, penicillin (100 IU/ml) and streptomycin (100 μg/ml). The cells were mildly trypsinized for passage and for use in assays. • On day one, 180 μl of trypsinized tumour cells (5×10^3 ml^−1) were placed in the wells of 96-well, flat-bottom microtiter plates. Columns 1 and 12 were filled with 300 μl medium to protect from evaporation. The plates were incubated for 24 hours at 37° C. and 5% CO2 in air to allow the cells to adhere and resume exponential growth prior to the addition of drugs. The compounds being tested were dissolved in DMSO and stored as 10 mM stock solutions at 4° C., protected from light. […] 20 μl of drug dilution was added to the other wells with the lowest concentration in column 3 and the highest concentration in column 11. The plates were incubated for 72 hours at 37° C. and 5% CO2 in air. Each compound was tested in triplicate. At the time of drug addition, a plate of untreated cells was read to provide an initial optical density value for use in the calculation of the IC50. • On day five the plates were read. 50 μl MTT (1 mg/ml^−1) was added per well and the plates incubated for a further 4 hours. The MTT is metaboliscd to form a blue formazan product. The MTT solution was aspirattd and 125 μl DMSO:glycine buffer (4:1) was added. The plates were placed on a plate shaker until the fornazan crystals had dissolved and absorbance was ready at 550 nm on a plate reader. • For each compound tested, a dose response curve was obtained and the IC50 statue (drug concentration at 50% inhibition of cell growth) was calculated.
(§2) (n=8) for a range of compounds in relation to MCF-7 and MDA 468 cell lines.
(In general: Formazan colour is commonly taken as a measure of viable cells.)

In the next data set the test system is MDA468. The data set can be described thus: In vitro cytotoxicity, 3-day MTT assay, MDA468. The class given is cell-based. As to the method:
as §1, §2

The next data set deals with COLO205 xenografts. As to the kind of experiment: In vivo COLO205 xenograft study (FIG. 2).
The nature of data set [1]: Stability in plasma in vitro. The class given is in vitro ADME, rat. The note with it: hydrochloride salts; rat and other mammalian plasma.
In data set [2] the test system is ER positive MCF-7 human breast tumor xenografts. The note with it: for in vivo growth retardation of MCF-7 xenografts: prodrugs.
Data set [3] has as its system ER negative MT-1 human breast tumor xenografts. The note with it: for in vivo growth retardation of MT-1 xenografts: prodrugs; for tumor growth inhibition in MT-1 xenografts: surviving mice treated with prodrug.
For data set [4] the following is noted: rats, i.v., typical dose 25 mg/kg.
The mark [5] stands for this setting: 72 h, asterisked values, IC50 concentration in μM.

On to “7-Fluoro-2-(4′-imino-3′-methylphenyl)benzothiazole [Ih]”, for which the IC50 (usually the point on the concentration scale where inhibition reaches its midpoint) was found to be 0.00239 µM in the data set with MCF-7 (n=8) and 0.0103 µM in the data set with MDA468 (n=8).
Regarding `Cc1cc(-c2nc3c(F)cccc3s2)ccc1N` [Compound Ia], the IC50 with MCF-7 (n=8) is under 0.0001 µM; with MDA468 (n=8), 0.00013 µM.
For the molecule `Cc1cc(-c2nc3cc(I)ccc3s2)ccc1N` [Compound Iak, 5-Iodo-2-(4′-amino-3′-methylphenyl)benzothiazole], the melting point (in general, the temperature, or range, at which the solid turns liquid) was in the range of 200 to 202 °C. For the same molecule, the IC50 in the data set with MCF-7 (Homo sapiens, MCF7, 72 h, n=8) was 0.493 µM. The molecule further showed an IC50 in the data set with MDA468 (setting [5]) of 80.9 µM.
For the molecule `Cc1cc(-c2nc3ccc(F)cc3s2)ccc1NC(=O)C(C)N` (centres unmarked) [Iac, 6-Fluoro-2-(4′-amino-3′-Methylphenyl)benzothiazole Alanyl Amide Hydrochloride Salt], the 50% inhibitory concentration (IC50) came out at 0.044 µM with MCF-7 (n=8) and 0.297 µM in the data set on MDA468 (n=8).
Taken in the same sequence, the figures for `Cc1cc(-c2nc3ccc(F)cc3s2)ccc1NC(=O)C(N)CCCCN` (centres unmarked) [Iae, 6-Fluoro-2-(4′-amino-3′-methylphenyl)benzothiazole Lysyl Amide Dihydrochloride Salt] were 0.147 µM and 0.328 µM.
In the case of `Cc1cc(-c2nc3cc(F)ccc3s2)ccc1NC(=O)C(C)N.Cl` (centres unmarked) [Iaf, 5-Fluoro-2-(4′-amino-3′-metbylphenyl)benzothiazole Alanyl Amide Hydrochloride Salt], the IC50 in the data set on MCF-7 (n=8) is 0.00589 µM; in the data set with MDA468 (n=8), 0.0377 µM. Further, in the data set on MCF-7 (compared with other prodrugs), the “IC50 in MCF-7 cells, fold lower than that of other amido prodrugs” value is recorded as over 5 fold.
Regarding `Cc1cc(-c2nc3cccc(I)c3s2)ccc1N` [Ial, 7-Iodo-2-(4′-amino-3′-methylphenyl)benzothiazole], the concentration for half-maximal inhibition (IC50) came to 0.0283 µM in the data set on MCF-7 (Homo sapiens, MCF7, 72 h, n=8) and 0.323 µM with MDA468 (72 h, n=8).
On to `CC(=O)Nc1ccc(-c2nc3cc(F)ccc3s2)cc1C` [Iam, 5-Fluoro-2-(4′-acetamido-3′-methylphenyl)benzothiazole], for which the melting point was 219 to 221 °C. Also, the IC50 with MCF-7 (Homo sapiens, MCF7, 72 h, asterisked values, IC50 concentration in μM) was 7.64 µM. The molecule also showed an IC50 in the data set on MDA468 (setting [5]) of 5.84 µM.
Molecule `N#Cc1cc(-c2nc3cc(F)ccc3s2)ccc1N` [Ian, 5-Fluoro-2-(4′-amino-3′-cyanophenyl)benzothiazole] had a melting point of 268 to 270 °C. For the same molecule, the concentration for half-maximal inhibition (IC50) in the data set on MCF-7 (Homo sapiens, MCF7, 72 h, n=8) was under 0.0001 µM. The 50% inhibitory concentration (IC50) with MDA468 (72 h, n=8) was under 0.0001 µM.
For `Nc1ccc(-c2nc3cc(F)ccc3s2)cc1CO` [Iaq, 5-Fluoro-2-(4′-amino-3′-(hydroxymethyl)phenyl)benzothiazole], the melting point lay within 242 to 245 °C. Besides, the half-inhibitory concentration (IC50) in the data set with MCF-7 (Homo sapiens, MCF7, 72 h, n=8) is under 0.0001 µM. The same molecule yielded an IC50 with MDA468 (72 h, n=8) of 0.00043 µM.
`Cc1cc(-c2nc3cc(F)c(F)cc3s2)ccc1NC(=O)C(C)N` (centres unmarked) [Iar, 5,6-Difluoro-2-(4′-amino-3′-methylphenyl)benzothiazole Alany Amide Hydrochloride Salt]: the half-inhibitory concentration (IC50) amounted to 0.0331 µM in the data set on MCF-7 (n=8) and 0.217 µM in the data set with MDA468 (n=8).
For the molecule `Cc1cc(-c2nc3cc(F)c(F)cc3s2)ccc1NC(=O)C(N)CCCCN` (centres unmarked) [Ias, 5,6-Difluoro-2-(4′-amino-3′-methylphenyl)benzothiazole Lysyl Amide Dihydrochloride], the values for the IC50 with MCF-7 (n=8) and in the data set with MDA468 (n=8) were 0.0307 µM and 0.302 µM, respectively.
Take `Nc1ccc(-c2nc3c(F)cccc3s2)cc1` [Ic, 4-Fluoro2-(4-aminophenyl)benzothiazole]: the half-maximal inhibitory concentration (IC50) was 0.00854 µM with MCF-7 (Homo sapiens, MCF7, 72 h, n=8) and 0.0294 µM in the data set on MDA468 (72 h, n=8).
Taken in the same sequence, the figures for `Nc1ccc(-c2nc3ccc(F)cc3s2)cc1` [Id, 6-Fluoro2-(4′-aminophenyl)benzothiazole] were under 0.0001 µM and 0.0481 µM.
As to `Cc1cc(-c2nc3c(F)c(F)ccc3s2)ccc1N` [Ie, 4,5-Difluoro-2-(4′-amino-3′-methylphenyl)benzothiazole], the IC50 in the data set with MCF-7 (Homo sapiens, MCF7, 72 h, n=8) is 0.00064 µM; in the data set on MDA468 (72 h, n=8) it was 0.00067 µM.
On to `Cc1cc(-c2nc3c(F)cc(F)cc3s2)ccc1N` [If], for which the concentration for half-maximal inhibition (IC50) in the data set with MCF-7 (n=8) is under 0.0001 µM; with MDA468 (n=8), 0.00535 µM.
As to `Cc1cc(-c2nc3cc(F)cc(F)c3s2)ccc1N` [Ig, 5,7-Difluoro-2-(4′-amino3′-methylphenyl)benzothiazole], the IC50 in the data set on MCF-7 (Homo sapiens, MCF7, 72 h, n=8) is 0.0009 µM; in the data set on MDA468 (72 h, n=8), 0.0044 µM.
As to `Cc1cc(-c2nc3cc(F)c(F)cc3s2)ccc1N` [Ii, 5,6-Difluoro-2-(4′-amino-3′-methylphenyl)benzothiazole], the IC50 was under 0.0001 µM in the data set on MCF-7 (Homo sapiens, MCF7, 72 h, n=8) and 0.00355 µM with MDA468 (72 h, n=8).
As for `Nc1ccc(-c2nc3cc(F)ccc3s2)cc1` [Il, 5-Fluoro-2-(4′-aminophenyl)benzothiazole], the half-maximal inhibitory concentration (IC50) with MCF-7 (Homo sapiens, MCF7, 72 h, n=8) was under 0.0001 µM; with MDA468 (72 h, n=8), under 0.0001 µM.
On to `Nc1ccc(-c2nc3c(F)cccc3s2)cc1I` [Im, 4-Fluoro-2-(4′-amino-3′-iodophenyl)benzothiazole], for which the IC50 with MCF-7 (Homo sapiens, MCF7, 72 h, n=8) worked out at 0.00788 µM; with MDA468 (72 h, n=8), 0.00911 µM.
Turning to `Nc1ccc(-c2nc3cc(F)ccc3s2)cc1I` [In, 5-Fluoro-2-(4′-amino-3′-iodophenyl)benzothiazole], the IC50 in the data set with MCF-7 (Homo sapiens, MCF7, 72 h, n=8) is under 0.0001 µM; in the data set on MDA468 (72 h, n=8), under 0.0001 µM.
For the molecule `Nc1ccc(-c2nc3ccc(F)cc3s2)cc1I` [Io, 6-Fluoro-2-(4′-amino-3′-iodophenyl)benzothiazole], the IC50 was under 0.0001 µM in the data set on MCF-7 (Homo sapiens, MCF7, 72 h, n=8) and under 0.0001 µM with MDA468 (72 h, n=8).
For `Nc1ccc(-c2nc3c(F)cccc3s2)cc1Cl` [Ip, 4-Fluoro-2-(4′-amino-3′-chlorophenyl)benzothiazole], the IC50 came to 0.00095 µM in the data set with MCF-7 (Homo sapiens, MCF7, 72 h, n=8) and 0.00193 µM in the data set with MDA468 (72 h, n=8).
Consider `Nc1ccc(-c2nc3cc(F)ccc3s2)cc1Cl` [Iq, 5-Fluoro-2-(4′-amino-3′-chlorophenyl)benzothiazole], for which the 50% inhibitory concentration (IC50) turned out to be 0.00709 µM in the data set with MCF-7 (Homo sapiens, MCF7, 72 h, n=8) and 0.0189 µM in the data set with MDA468 (72 h, n=8).
For `Nc1ccc(-c2nc3ccc(F)cc3s2)cc1Cl` [Ir, 6-Fluoro-2-(4′-amino3′chlorophenYl)bcnzothiazole], the IC50 in the data set on MCF-7 (n=8) was determined as 0.00408 µM; in the data set on MDA468 (n=8), 0.0117 µM.
For the molecule `Nc1ccc(-c2nc3c(F)cccc3s2)cc1Br` [Is, 4-Fluoro-2-(4′amino-3′-bromophenyl)benzothiazole], the IC50 came to 0.0382 µM with MCF-7 (Homo sapiens, MCF7, 72 h, n=8) and 0.024 µM with MDA468 (72 h, n=8).
Turning to `Nc1ccc(-c2nc3cc(F)ccc3s2)cc1Br` [It, 5-Fluoro-2-(4′-amino-3′-bromophenyl)benzothiazole], the IC50 in the data set on MCF-7 (Homo sapiens, MCF7, 72 h, n=8) was under 0.0001 µM; in the data set with MDA468 (72 h, n=8) it was 0.0002 µM.
`Nc1ccc(-c2nc3ccc(F)cc3s2)cc1Br` [Iu, 6-Fluoro2-(4′-amino-3′-bromophenyl)benzothiazole]: the IC50 stood at 0.0455 µM in the data set with MCF-7 (Homo sapiens, MCF7, 72 h, n=8) and 0.0687 µM in the data set with MDA468 (72 h, n=8).
For `CC(N)C(=O)Nc1ccc(-c2nc3ccccc3s2)cc1.Cl` (centres unmarked) [Iv, 2-(4′-Aminophenyl)benzothiazole Alanyl Amide Hydrochloride Salt], the IC50 in the data set with MCF-7 (n=8) was 0.06 µM; in the data set on MDA468 (n=8), 0.04 µM. Also, the “tumour growth inhibition, COLO205 xenografts (FIG. 2)” value in the data set on COLO205 xenografts was “tumour growth inhibition observed”.
Take `Cc1cc(-c2nc3ccccc3s2)ccc1NC(=O)C(C)N.Cl` (centres unmarked) [Iw, 2-(4′-Amino-3′-methylphenyl)benzothiazole Alanyl Amide Hydrochloride Salt]: in the data set with MCF-7 (n=8), half-maximal inhibition (IC50) required 0.36 µM. In the data set on MDA468 (n=8), this molecule registered a 50% inhibitory concentration (IC50) of 0.34 µM. The “stability in plasma in vitro” value in data set [1] is listed as “stable”. For the same molecule, the “growth retardation of MCF-7 xenografts compared with (Iz)” value in data set [2] (12.5 mg/kg given i.v.) was “greater extent of growth retardation”. The “in vivo growth retardation of MCF-7 xenografts” value in data set [2] is “significant in vivo growth retardation”. In data set [3], the “in vivo growth retardation of MT-1 xenografts” value is “significant in vivo growth retardation” and the “tumor growth inhibition in MT-1 xenografts” value is reported as “moderate tumor growth inhibition”. In addition, the “removal from plasma and reconversion to parent compound in vivo” value in data set [4] is “readily removed from such plasma and reconverted to their parent compound in vivo”.
`Cc1cc(-c2nc3ccccc3s2)ccc1NC(=O)C(N)CCCCN.Cl.Cl` (centres unmarked) [Iz, 2-(4′-Amino-3′-methylphenyl)benzothiazole Lysyl Amide Dihydrochioride Salt]: the IC50 in the data set with MCF-7 (n=8) came to 0.08 µM. For the same molecule, the midpoint of inhibition in the data set on MDA468 (n=8), the IC50, lay at 0.07 µM. For the same molecule, the “stability in plasma in vitro” value in data set [1] was “stable”. In addition, in data set [2] (prodrug, dose dependence), the body weight loss result was “Dose-dependent body weight loss”. In data set [2], the “in vivo growth retardation of MCF-7 xenografts” value is “significant in vivo growth retardation”. Further, in data set [3], the “in vivo growth retardation of MT-1 xenografts” value is on record as “significant in vivo growth retardation” and the “tumor growth inhibition in MT-1 xenografts” value was “moderate tumor growth inhibition”. Besides, in data set [4], the “removal from plasma and reconversion to parent compound in vivo” value was “readily removed from such plasma and reconverted to their parent compound in vivo”.

(Values after patent US6858633B1, “Substituted 2-arylbenzazole compounds and their use as antitumour agents” (Cancer Research Technology Limited, priority 1999, dated 2005).)
